Data set [1] in a line: Thermodynamic stability of polymorphic forms. The format is physicochemical. On the procedure:
Crystalline eprosartan acid exists in two different polymorphic forms—the α (alpha) and β (beta) forms. The a polymorphic form of eprosartan acid has the highest thermodynamic stability of up to 200° C. Although the Examples use the α form of eprosartan acid, the β form of eprosartan acid can also be used in the same way.

The conditions of data set [2]: in vivo; cited from earlier work.

Molecules are shown by their SMILES. Structures can show the parent of a compound that is named as a salt.

Consider `CCCCc1ncc(/C=C(\Cc2cccs2)C(=O)O)n1Cc1ccc(C(=O)O)cc1` [a polymorphic form of eprosartan acid], for which the “highest thermodynamic stability of up to” value in data set [1] is “up to 200 °C”.
Regarding `CCCCc1ncc(/C=C(\Cc2cccs2)C(=O)O)n1Cc1ccc(C(=O)O)cc1` [eprosartan mesylate], in data set [2], the “variable and mean absolute bioavailability” value is “approximately 13%”.

The values are drawn from patent US20120302555A1, “METHOD OF TREATMENT USING EPROSARTAN” (priority 2008, published 2012).
